Read-outs that look alike come from different tables or passages of the source.
Experiments:
OCT2 [1] = target: T1, OCT2 (Homo sapiens, UniProt O15244); test: Inhibition of OCT2-mediated oxaliplatin uptake in transfected MDCK-II cells (protein-free HBSS); conditions: for inhibition at 30 min, 5 μM / inhibition at 30 min, 50 μM / potency estimated from few doses at 30 min: human
T1 sequence (O15244 1-555): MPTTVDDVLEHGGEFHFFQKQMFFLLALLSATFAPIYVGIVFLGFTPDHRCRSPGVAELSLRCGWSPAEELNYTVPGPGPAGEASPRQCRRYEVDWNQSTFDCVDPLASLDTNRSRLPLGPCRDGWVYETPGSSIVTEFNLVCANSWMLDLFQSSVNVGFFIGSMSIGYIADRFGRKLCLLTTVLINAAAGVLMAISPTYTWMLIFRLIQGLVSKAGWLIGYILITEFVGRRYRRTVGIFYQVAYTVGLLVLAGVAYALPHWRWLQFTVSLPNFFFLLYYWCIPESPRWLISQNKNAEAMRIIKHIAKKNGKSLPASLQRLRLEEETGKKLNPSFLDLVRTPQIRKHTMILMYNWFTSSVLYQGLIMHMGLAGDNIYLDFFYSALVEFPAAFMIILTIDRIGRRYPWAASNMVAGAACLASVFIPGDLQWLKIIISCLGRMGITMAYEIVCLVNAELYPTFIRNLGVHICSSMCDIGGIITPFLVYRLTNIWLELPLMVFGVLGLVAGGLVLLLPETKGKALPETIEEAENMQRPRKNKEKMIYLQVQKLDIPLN
From the text: Fully confluent MDCK cell monolayers were transfected with either cDNA plasmids encoding the human transporter to be tested or a GFP control. […] The cells were then washed with ice-cold PBS and lysed with 50:50 acetonitrile:H2O. Intracellular content of the substrate was quantified by LC/MS/MS or a MicroBeta radiometric plate reader.

OCT2 [2] = target: T1, OCT2; test: Inhibition of OCT2-mediated ASP+ uptake (Kido et al., Giacomini group)
OCT2 [3] = target: T1, OCT2; conditions: OCT2-mediated uptake; ASP+ 5 μM in HBSS; from Kido Y et al. J Med Chem 2011; cited from earlier work
OCT2 [4] = target: T1, OCT2; test: Inhibition of OCT2-mediated metformin uptake in transfected MDCK-II cells; conditions: for inhibition at 5 min, 5 μM / inhibition at 5 min, 50 μM: human
[5] = cited from earlier work; for Plasma protein binding (%): published data; for Cmax: read-out: Plasma peak total concentration Cmax, published clinical pharmacokinetic data
[6] = Published clinical pharmacokinetic data; conditions: from published Cmax and protein binding
OCT2 [7] = target: T1, OCT2; test: in vitro
[8] = human, in vivo
[9] = clinical dose; cited from earlier work
OCT2 [10] = target: T1, OCT2; test: Inhibition of OCT2-mediated oxaliplatin transport in 100% human serum or HBSS containing 4% BSA (IC50,app)
[11] = human, cell line expressing human OCT2 (cell line not given), probe ASP+ 5 μM
[12] = MDCK-II cells transfected with human OCT2, probe oxaliplatin 10 μM
[13] = IC50 (μM) (substrate Oxaliplatin)

In the case of `OCC(O)COc1ccc(Cl)cc1` (stereo not shown) [Chlorphenesin], the inhibition at 30 min, 5 μM (OCT2 [1]) is reported as 14%, the inhibition at 30 min, 50 μM (OCT2 [1]) is reported as 30% and the potency estimated from few doses at 30 min (OCT2 [1]) is reported as 118 µM. For the same molecule, the potency estimated from few doses (OCT2 [2]; [11]) was 0.86 µM and the “Inhibition % @ 20 μM (substrate ASP+)” value (OCT2 [3]) was 96%.
In the case of `NC1=NCC2c3ccccc3Cc3ccccc3N12` (stereo not shown) [Epinastine], the IC50 (OCT2 [1]) is reported as 190 nM, the inhibition at 30 min, 5 μM (OCT2 [1]) is reported as 96% and the inhibition at 30 min, 50 μM (OCT2 [1]) is reported as 100%. The potency estimated from few doses at 30 min (OCT2 [1]) was 0.19 µM, the potency estimated from few doses (OCT2 [2]; [11]) was 0.58 µM and the “Inhibition % @ 20 μM (substrate ASP+)” value (OCT2 [3]) was 97%. For the same molecule, the IC50 (OCT2 [4]) was 3.9 µM, the inhibition at 5 min, 5 μM (OCT2 [4]) was 56% and the inhibition at 5 min, 50 μM (OCT2 [4]) was 92%. The “Plasma protein binding (%)” value [5] was 64.2%, the Cmax [5] was 120 nM and the “Plasma peak unbound concentration Cmax,u” value [6] was 40 nM.
With `C=C1C[C@@H]2[C@H](CC[C@]3(C)C(=O)CC[C@@H]23)[C@@]2(C)C=CC(=O)C=C12` [Exemestane] the IC50 (OCT2 [1]) was 190 nM, the inhibition at 30 min, 5 μM (OCT2 [1]; [12]) was 96% and the inhibition at 30 min, 50 μM (OCT2 [1]; [12]) was 102%. The potency estimated from few doses at 30 min (OCT2 [1]; [12]) was 0.19 µM, the potency estimated from few doses (OCT2 [2]; [11]) was < 0.1 µM and the inhibition at 5 min, 5 μM (OCT2 [7]) was 66%. For the same molecule, the inhibition at 5 min, 50 μM (OCT2 [7]) was 94%, the “Inhibition % @ 20 μM (substrate ASP+)” value (OCT2 [3]) was 100% and the IC50 (OCT2 [4]) was 2.6 µM. For the same molecule, the “Plasma protein binding (%)” value [5] was 90%, the Cmax [5] was 91 nM and the “Plasma peak unbound concentration Cmax,u” value [6] was 10 nM.
For `Cc1ccc(NC(=O)c2ccc(CN3CCN(C)CC3)cc2)cc1Nc1nccc(-c2cccnc2)n1` [Imatinib], the “fold less potent as inhibitor of OCT2-mediated metformin and oxaliplatin uptake than of ASP+ uptake” value (OCT2 [1]; comparison of Table 1 potencies) was > 30 fold, the inhibition at 30 min, 5 μM (OCT2 [1]) was 57% and the inhibition at 30 min, 50 μM (OCT2 [1]) was 95%. The potency estimated from few doses at 30 min (OCT2 [1]; [13]) was 3.7 µM, the potency estimated from few doses (OCT2 [2]; [11]) was < 0.1 µM and the “Inhibition % @ 20 μM (substrate ASP+)” value (OCT2 [3]) was 103%.
With `CC(C)[N+]1(C)[C@@H]2CC[C@H]1CC(OC(=O)C(CO)c1ccccc1)C2.[Br-]` (stereo partly shown) [Ipratropium•Br] the “Inhibition % @ 5 μM (substrate Oxaliplatin)” value (OCT2 [1]; OCT2-mediated uptake, oxaliplatin 10 μM in HBSS, 30 min, inhibitor 5 μM) was 107%, the “Inhibition % @ 50 μM (substrate Oxaliplatin)” value (OCT2 [1]; OCT2-mediated uptake, oxaliplatin 10 μM in HBSS, 30 min, inhibitor 50 μM) was 104% and the potency estimated from few doses (OCT2 [1]; read-out: IC50 (μM) (substrate Oxaliplatin), OCT2-mediated uptake, oxaliplatin 10 μM in protein-free HBSS, estimated from single concentration or nonlinear regression) was < 0.1 µM. The IC50 (OCT2 [1]; read-out: IC50 or Ki, intrinsic inhibition constant in protein free HBSS, OCT2-mediated oxaliplatin uptake) was < 100 nM, the potency estimated from few doses (OCT2 [2]; read-out: IC50 (μM) (substrate ASP+), estimated from the inhibition at the single concentration 20 μM) was 0.81 µM and the “Inhibition % @ 20 μM (substrate ASP+)” value (OCT2 [3]) was 96%. The “Inhibition % @ 5 μM (substrate Metformin)” value (OCT2 [4]; OCT2-mediated uptake, metformin 10 μM in HBSS, 5 min, inhibitor 5 μM) was 94%, the “Inhibition % @ 50 μM (substrate Metformin)” value (OCT2 [4]; OCT2-mediated uptake, metformin 10 μM in HBSS, 5 min, inhibitor 50 μM) was 97% and the IC50 (OCT2 [4]; read-out: IC50 (μM) (substrate Metformin), OCT2-mediated uptake, metformin 10 μM in HBSS, estimated from 50 μM or regression of seven concentrations (±SEM)) was 0.32 µM.
Work on `N=C(N)c1ccc(OCCCCCOc2ccc(C(=N)N)cc2)cc1` [Pentamidine] yielded an IC50 (OCT2 [1]) of 67 nM, an inhibition at 30 min, 5 μM (OCT2 [1]) of 99% and an inhibition at 30 min, 50 μM (OCT2 [1]) of 99%. The potency estimated from few doses at 30 min (OCT2 [1]; [13]) was 0.07 µM, the potency estimated from few doses (OCT2 [2]; [11]) was < 0.1 µM and the inhibition at 5 min, 5 μM (OCT2 [7]) was 67%. For the same molecule, the inhibition at 5 min, 50 μM (OCT2 [7]) was 91%, the “Inhibition % @ 20 μM (substrate ASP+)” value (OCT2 [3]) was 102% and the IC50 (OCT2 [4]) was 2.5 µM. The “Plasma protein binding (%)” value [5] was 69%, the Cmax [5] was 730 nM and the “Plasma peak unbound concentration Cmax,u” value [8] was 230 nM. For the same molecule, the “patients with nephrotoxicity at a clinical dose” value [9] was ~25%.
In the case of `CC(C)[N+](C)(CCOC(=O)C1c2ccccc2Oc2ccccc21)C(C)C` [Propantheline•Br], the IC50 (OCT2 [1]) is reported as < 100 nM, the potency estimated from few doses at 30 min (OCT2 [1]; [13]) is reported as < 0.1 µM and the inhibition at 30 min, 5 μM (OCT2 [1]; [12]) is reported as 103%. For the same molecule, the inhibition at 30 min, 50 μM (OCT2 [1]; [12]) was 102%, the potency estimated from few doses (OCT2 [2]; [11]) was < 0.1 µM and the inhibition at 5 min, 5 μM (OCT2 [7]) was 75%. For the same molecule, the inhibition at 5 min, 50 μM (OCT2 [7]) was 96%, the “Inhibition % @ 20 μM (substrate ASP+)” value (OCT2 [3]) was 107% and the IC50 (OCT2 [4]) was 1.7 µM. The Cmax [5] was 134 nM and the IC50 (OCT2 [10]; IC50,app (μM), apparent inhibition constant in 100% human serum or HBSS containing 4% BSA, OCT2-mediated oxaliplatin uptake) was 0.24 µM.
In the case of `C[N+]1(C)[C@@H]2C[C@@H](OC(=O)C(O)(c3cccs3)c3cccs3)C[C@H]1[C@@H]1O[C@@H]12` [Tiotropium•Br], the IC50 (OCT2 [1]) is reported as 120 nM, the inhibition at 30 min, 5 μM (OCT2 [1]) is reported as 98% and the inhibition at 30 min, 50 μM (OCT2 [1]) is reported as 102%. The potency estimated from few doses at 30 min (OCT2 [1]) was 0.12 µM, the IC50 (OCT2 [4]) was 1.5 µM and the inhibition at 5 min, 5 μM (OCT2 [4]) was 77%. The inhibition at 5 min, 50 μM (OCT2 [4]) was 95%, the “Plasma protein binding (%)” value [5] was 72% and the Cmax [5] was 34 nM. For the same molecule, the IC50 (OCT2 [10]) was 1.1 µM and the “Plasma peak unbound concentration Cmax,u” value [6] was 10 nM.

From patent US11197862B2, “Methods of preventing toxicity of platinum drugs” (XOMICS BIOPHARMA, INC., priority 2015, dated 2021)
